Experimental findings from patent publication US12577213B2 (NINGBO COMBIREG PHARMACEUTICAL TECHNOLOGY CO., LTD., priority 2020, dated 2026) are described below.

Like-named read-outs stand apart in the source and are kept apart here. A value given as a limit tells only on which side of the number the result lay.

Series [1] in a line: Liver microsomes stability. The class given is in vitro ADME, human. Particulars: 1 μM compound, 1 mg/mL human liver microsomes, 1 mM NADPH; for half-life at 1 μM: read-out: T½ of HLM. On the procedure:
The compound to be tested with final concentration of 1 μM was incubated with 1 mg/mL of human liver microsomes and 1 mM of NADPH, and a group without NADPH was set as a negative control. The reaction mixture was quenched with methanol at five time points of 0, 5, 15, 30 and 60 min, respectively, then centrifuged at 2500 rpm for 20 min to precipitate proteins, and the resulting supernatant was analyzed by LC-MS/MS. The data was analyzed and the k value and half-life T1/2 was calculated, T1/2(min)=0.693/k.
Wherein, compounds a, b and c are active compounds disclosed in patent No. ZL201610154581.3.

A further series concerns HCT116 (colon cancer). The series is described as follows: NCI method SRB growth inhibition, HCT116. It counts as cell-based. As to conditions: Homo sapiens, HCT-116; HCT116, treated 48 hours, SRB stain. The text has this:
(§1) In this embodiment, the method of National Cancer Institute (NCI) was used to evaluate the anti-tumor activity of the embodiment compounds in the present disclosure. Nine representative cell lines were selected for activity evaluation, including A549 (non-small cell lung cancer), HCT116 (colon cancer), SF295 (central nervous system tumor), LOX-IMVI (melanoma), 786-0 (renal cancer), K562 (leukemia), PC-3 (prostate cancer), OVCAR-3 (ovarian cancer) and HS 578T (breast cancer).
(§2) The specific method was as follows: 60 tumor cell lines of 9 kinds of human cancers were used to evaluate the inhibitory activity of the compound in vitro. A test group, a parallel control group and a vehicle control group were set up. The parallel control group was fixed immediately before the compound was added; the cells in the test group were fixed after being treated with the compound for 48 hours; the vehicle control group was fixed after an equal volume of complete medium was added for 48 hours. Sulforhodamine B (SRB) was used to stain, and the OD value was measured at a wavelength of 515 nm. The specific calculation method was as follows: the OD value of the parallel control group was recorded as Tz, the OD value of the vehicle control group was recorded as C, and the OD value of the test group was recorded as (Ti). If Ti≥Tz, it means that the cells still grow after the drug was added, and the growth rate %=[(Ti−Tz)/(C−Tz)]×100; if Ti<Tz, it means that the cells are killed after the drug was added, and the growth rate %=[(Ti−Tz)/Tz]×100. Three parameters were used to evaluate the anti-tumor activity of compounds in this method: 50% growth inhibitory concentration (GI50): i.e. the compound concentration at [(Ti−Tz)/(C−Tz)]×100=50; complete growth inhibitory concentration (TGI): the compound concentration at Ti=Tz; the drug concentration required to kill 50% of the cells (LC50): i.e. the compound concentration at [(Ti−Tz)/Tz]×100=−50.
(§3) The inhibitory activities of the embodiment compounds on nine representative tumor cell lines were listed in detail in Table 1. Wherein, the GI50 value means “50% growth inhibition rate”, that is, the concentration of the compound to be tested when it can inhibit […] of cell growth; “ND” means not detected.

The subject of the next series is 786-0 (renal cancer). Briefly: NCI method SRB growth inhibition, 786-0. The class given is cell-based. As to conditions: Homo sapiens; 786-0, treated 48 hours, SRB stain.
From the text: as §1, §2, §3

A further series has as its system OVCAR-3 (ovarian cancer). The series is described as follows: NCI method SRB growth inhibition, OVCAR-3. The class given is cell-based. Particulars: Homo sapiens; OVCAR-3, treated 48 hours, SRB stain.
From the text: as §1, §2, §3

The next series has as its system LOX-IMVI (melanoma). Briefly: NCI method SRB growth inhibition, LOX-IMVI. It counts as cell-based. Particulars: Homo sapiens, treated 48 hours, SRB stain.
From the text: as §1, §2, §3

The subject of series [2] is SF295 (central nervous system tumor). Briefly: NCI method SRB growth inhibition, SF295. The class given is cell-based. Particulars: Homo sapiens, SF-295; SF295, treated 48 hours, SRB stain.
From the text: as §1, §2, §3

A further series has as its system PC-3 (prostate cancer). Briefly: NCI method SRB growth inhibition, PC-3. Particulars: Homo sapiens; PC-3, treated 48 hours, SRB stain. It counts as cell-based.
From the text: as §1, §2, §3

The test system of the next series is HS 578T (breast cancer). Briefly: NCI method SRB growth inhibition, HS 578T. The class given is cell-based. As to conditions: Homo sapiens, HS578T, treated 48 hours, SRB stain.
From the text: as §1, §2, §3

Series [3] has as its system A549 (non-small cell lung cancer). Briefly: NCI method SRB growth inhibition, A549. As to conditions: Homo sapiens; A549, treated 48 hours, SRB stain. It counts as cell-based.
From the text: as §1, §2, §3

The subject of the next series is K562 (leukemia). Briefly: NCI method SRB growth inhibition, K562. The class given is cell-based. Particulars: Homo sapiens; K562, treated 48 hours, SRB stain.
From the text: as §1, §2, §3

`[2H]C([2H])([2H])OC(=O)C[C@@H]1NC(=O)c2cc(Oc3cc(C)cc(C)c3)c(NC(=O)c3cc(OC)c(OC)c(OC)c3Cl)cc2NC1=O` [Compound 9, (S)-2-[8-(2-chloro-3,4,5-trimethoxybenzamido)-7-(3,5-dimethylphenoxy)-2,5-dioxo-2,3,4,5-tetrahydro-1H-benzo[e][1,4]diazepin-3-yl]acetic acid trideuteromethyl ester] yielded an intrinsic metabolic clearance (microsomal CLint) at 1 μM in series [1] of 5.9 µL/min/mg. Also, the half-life at 1 μM in series [1] (human, human liver microsomes) was found to be 1.95 h. Besides, the concentration for 50% growth inhibition (GI50) with HCT116 (colon cancer) is 14.8 nM; with 786-0 (renal cancer), 44.8 nM; with OVCAR-3 (ovarian cancer), 8.6 nM; in the series with LOX-IMVI (melanoma), 13.9 nM; in series [2] it was 15.2 nM; with PC-3 (prostate cancer), 13.1 nM. In addition, the GI50 in the series with HS 578T (breast cancer) was 40.5 nM; in [3], 23 nM; with K562 (leukemia), 17 nM.
With `[2H]C([2H])([2H])Oc1cc(C(=O)Nc2cc3c(cc2Oc2cc(C)cc(C)c2)C(=O)N[C@@H](CC(=O)C(C)(C)P(=O)(OC)OC)C(=O)N3)c(Br)c(OC([2H])([2H])[2H])c1OC([2H])([2H])[2H]` [Compound 26, (S)-dimethyl-(4-8-(2-bromo-3,4,5-tris(trideuteromethoxy)benzoyl)-7-(3,5-dimethylphenoxy)-2,5-dioxo-2,3,4,5-tetrahydro-1H-benzo[e][1,4]diazepin-3-yl)-2-methyl-3-oxobutyl-2-yl)dimethyl phosphate], the half-life at 1 μM in [1] stood at 3.62 h. This molecule also came in with an intrinsic metabolic clearance (microsomal CLint) at 1 μM in [1] (human, human liver microsomes) of 3.2 µL/min/mg. Also, the concentration for 50% growth inhibition (GI50) is 14.2 nM with HCT116 (colon cancer); 57.4 nM in the series with 786-0 (renal cancer); 6 nM in the series on OVCAR-3 (ovarian cancer); 6.2 nM with LOX-IMVI (melanoma); 42.7 nM in [2]; < 5 nM in the series with PC-3 (prostate cancer). Besides, the GI50 was 10 nM with HS 578T (breast cancer), 13 nM in series [3] and < 5 nM with K562 (leukemia).
In the case of `[2H]C([2H])([2H])Oc1cc(C(=O)Nc2cc3c(cc2Oc2cc(C)cc(C)c2)C(=O)N[C@@H](CC(=O)N(OC([2H])([2H])[2H])C([2H])([2H])[2H])C(=O)N3)c(Cl)c(OC([2H])([2H])[2H])c1OC([2H])([2H])[2H]` [Compound 38], in [1], the microsomal CLint at 1 μM was 7.2 µL/min/mg. In [1] (human, human liver microsomes), the half-life at 1 μM was 1.6 h. In addition, the GI50 with HCT116 (colon cancer) is 13 nM; in the series on 786-0 (renal cancer), 23 nM; with OVCAR-3 (ovarian cancer) it was < 5 nM; in the series with LOX-IMVI (melanoma), 5.2 nM; in series [2], 27 nM; in the series with PC-3 (prostate cancer) it was < 5 nM. The GI50 with HS 578T (breast cancer) is 21 nM; in [3] it was < 5 nM; in the series with K562 (leukemia), < 5 nM.
In the case of `[2H]C([2H])([2H])Oc1cc(C(=O)Nc2cc3c(cc2Oc2cc(C)cc(C)c2)C(=O)N[C@@H](CC(=O)N(C)OC([2H])([2H])[2H])C(=O)N3)c(Br)c(OC([2H])([2H])[2H])c1OC([2H])([2H])[2H]` [Compound 40], the intrinsic metabolic clearance (microsomal CLint) at 1 μM in [1] is 9 µL/min/mg. The half-life at 1 μM in series [1] (human, human liver microsomes) worked out at 1.28 h. Further, the GI50 (with HCT116 (colon cancer); in the series with 786-0 (renal cancer); in the series with OVCAR-3 (ovarian cancer); in the series on LOX-IMVI (melanoma); in [2]; in the series on PC-3 (prostate cancer)) was < 5 nM each time. The GI50 (in the series on HS 578T (breast cancer); in [3]; in the series with K562 (leukemia)) was < 5 nM in each case.
`[2H]C([2H])([2H])c1c(OC)cc(C(=O)Nc2cc3c(cc2Oc2cc(C)cc(C)c2)C(=O)N[C@@H](CC(=O)N(CC)CC)C(=O)N3)c(Cl)c1OC` [Compound 3, (S)-2-chloro-N-[3-[2-(diethylamino)-2-oxoethyl]-7-(3,5-dimethylphenoxy)-2,5-dioxo-2,3,4,5-tetrahydro-1H-benzo[e][1,4]diazepin-8-yl]-3,5-dimethoxy-4-(trideuteromethyl)benzamide]: the “T½ of HLM” value in [1] turned out to be 0.638 h. The molecule further came in with a microsomal CLint at 1 μM in series [1] of 18.1 µL/min/mg. For the same molecule, the half-life at 1 μM in [1] (human, human liver microsomes) came to 0.633 h. In addition, the GI50 in the series with HCT116 (colon cancer) came to 11.2 nM; with 786-0 (renal cancer) it was 110 nM; in the series with OVCAR-3 (ovarian cancer) it was 28.6 nM; in the series with LOX-IMVI (melanoma) it was 18.4 nM; in series [2], 53.2 nM; in the series with PC-3 (prostate cancer), 43.9 nM. For the same molecule, the GI50 with HS 578T (breast cancer) was 91.9 nM; in series [3], < 5 nM; in the series on K562 (leukemia), 8.4 nM.
On to `[2H]C([2H])([2H])Oc1cc(C(=O)Nc2cc3c(cc2Oc2cc(C)cc(C)c2)C(=O)N(C)[C@@H](CC(=O)N(C)OC)C(=O)N3)c(Cl)c(OC([2H])([2H])[2H])c1OC([2H])([2H])[2H]` [Compound 36], for which the microsomal CLint at 1 μM in [1] was 6.8 µL/min/mg. Also, the half-life at 1 μM in series [1] (human, human liver microsomes) is 1.7 h. Besides, the GI50 was < 5 nM in the series on HCT116 (colon cancer); 11.9 nM in the series on 786-0 (renal cancer); < 5 nM in the series with OVCAR-3 (ovarian cancer); < 5 nM in the series on LOX-IMVI (melanoma); 10 nM in series [2]; < 5 nM in the series with PC-3 (prostate cancer). Moreover, the GI50 in the series on HS 578T (breast cancer) is 8.5 nM; in series [3] it was < 5 nM; with K562 (leukemia), < 5 nM.
Consider `[2H]C([2H])([2H])Oc1cc(C(=O)Nc2cc3c(cc2Oc2cc(C)cc(C)c2)C(=O)N[C@@H](CC(=O)N(C)OC)C(=O)N3)c(Cl)c(OC([2H])([2H])[2H])c1OC([2H])([2H])[2H]` [Compound 35], for which the intrinsic metabolic clearance (microsomal CLint) at 1 μM in series [1] was 11.7 µL/min/mg. The half-life at 1 μM in [1] (human, human liver microsomes) worked out at 0.987 h. Also, the 50% growth inhibitory concentration (GI50) is 9.8 nM in the series with HCT116 (colon cancer); 21.1 nM in the series with 786-0 (renal cancer); < 5 nM in the series on OVCAR-3 (ovarian cancer); 5.6 nM in the series with LOX-IMVI (melanoma); 29 nM in [2]; < 5 nM with PC-3 (prostate cancer). Also, the concentration for 50% growth inhibition (GI50) is 16 nM in the series with HS 578T (breast cancer), < 5 nM in [3] and < 5 nM with K562 (leukemia).
For the molecule `[2H]C([2H])([2H])Oc1cc(C(=O)Nc2cc3c(cc2Oc2cc(C)cc(C)c2)C(=O)N(C)[C@@H](CC(=O)N2CCC(F)(F)CC2)C(=O)N3)c(Cl)c(OC([2H])([2H])[2H])c1OC([2H])([2H])[2H]` [Compound 17, (S)-2-chloro-N-[3-[2-(4,4-difluoropiperidin-1-yl)-2-oxoethyl]-7-(3,5-dimethylphenoxy)-4-methyl-2,5-dioxo-2,3,4,5-tetrahydro-1H-benzo[e][1,4]diazepin-8-yl]-3,4,5-tris(trideuteromethoxy)benzamide], the intrinsic metabolic clearance (microsomal CLint) at 1 μM in series [1] turned out to be 34.5 µL/min/mg. Also, in [1] (human, human liver microsomes), the half-life at 1 μM worked out at 0.335 h. In addition, the concentration for 50% growth inhibition (GI50) in the series with HCT116 (colon cancer) is 44.9 nM; with 786-0 (renal cancer), 10 nM; with OVCAR-3 (ovarian cancer), 8.4 nM; in the series on LOX-IMVI (melanoma), < 5 nM; in series [2], 8 nM; in the series on PC-3 (prostate cancer) it was < 5 nM. In addition, the GI50 is 5.6 nM in the series with HS 578T (breast cancer), 15.8 nM in series [3] and < 5 nM in the series on K562 (leukemia).
